Assay results as given in US20110071094A1, “(D)-ALLOSE INDUCING PROGRAMMED CELL DEATH IN HORMONE REFRACTORY PROSTATE CANCER LINES” (INDUSTRY-ACADEMIC COOPERATION FOUDATION, GYEONGSANG …, priority 2008, published 2011).

Tests used:
DU145 cell line [1] = experiment: Apoptotic indices by DAPI staining, confocal microscopy; type: cell-based, human; settings: DU145, 24, 48 and 72 h
Protocol: The Annexin-V-FLUOS Staining Kit (Roche Diagnostics GmbH, Mannheim, Germany) was used for the detection and quantification of the apoptotic cells. This kit uses a dual-staining protocol in which the apoptotic cells are stained with annexin-V (green fluorescence) and the necrotic cells are stained with propidium iodide (PI, red fluorescence). Briefly, DU145 cell line was grown at a density of 1×10^6 cells in triplicate culture plates and then treated with D-allose (0, 20 and 40 mM) for 48 and 72 h. The cells were treated with trypsin and harvested with PBS and processed for labeling with annexin-V and PI by the use of the kit according to the manufacturer's protocol. The fluorescence was measured by flow cytometric analysis, performed on a FACSCalibur (Becton Dickinson, San Jose, Calif., USA) using 488 nm excitation and a 515 nm band pass filter for fluorescein detection and a filter [600 nm for PI detection (FL1: Annexin-V-FLUOS; FL2: PI). Further, apoptotic indices were measured by analysis of fragmented or scattered nuclei and condensed chromosome as the stringent morphological criteria of apoptosis, detectable by confocal microscopy on cells stained with DNA-intercalating dye […] (DAPI). For this purpose, DU145 and PrEC cell lines were exposed to 0, 20 and 40 mM of D-allose for up to 72 h, stained with DAPI (1 μg/ml in methanol), mounted with Prolong Antifade reagent (Molecular Probes, Eugene, Oreg., USA), and images were acquired by use of a confocal laser scanning microscope (Fluoview FV 1000, Olympus, Japan). The numbers of apoptotic nuclei per 100 cells were counted from the five high power fields/slide and apoptotic indices were expressed as a percentage of the untreated controls in each cell line, considering the value as 100%. DU145 cell line was also treated with 0-40 mM of D-glucose for determination of apoptotic indices as mentioned above.

DU145 cell line [2] = experiment: Cell viability / cell growth, MTT assay; type: cell-based, human; settings: DU145, 0-40 mM, compared to control
Protocol: DU145 (human HRPC cell line, derived from a patient with brain metastasis) and PrEC (human normal prostate epithelial cell line) cell lines were obtained from Korea Cell Line Bank (KCLB, Seoul, South Korea). DU145 and PrEC cell lines were grown in triplicate culture plates containing RPMI-1640 (HyClone, Logan, Utah, USA) and Dulbecco's Modified Eagle's Medium (HyClone, Logan, Utah, USA) respectively, and kept in a humidified atmosphere containing 5% CO2 at 37° C. for 72 h. The media were supplemented with 10% heat-inactivated fetal bovine serum (HyClone, Logan, Utah, USA), 1% antibio-antimicotic solution containing 10,000 units/ml of penicillin and 10 mg/ml of streptomycin (HyClone, Logan, Utah, USA), HEPES, sodium bicarbonate, p-aminobenzoic acid and insulin (complete culture media). D-Allose was purchased from Sigma (St. Louis, Mo., USA) and dissolved at a concentration of 1 M in sterile phosphate-buffered saline (PBS), and was further sterilized by filtration. To examine the dose- and time-dependent effects, the cell lines (70-80% confluent) were treated with 0-40 mM of D-allose for up to 72 h, whereas without D-allose treated cell lines (0 mM) were considered as control. DU145 cell line was also treated with 0-40 mM of D-glucose. All the other chemicals used in the work were procured from Sigma (St. Louis, Mo., USA), unless otherwise specified.
The logarithmic growth phase of DU145 and PrEC cell lines were taken for growth assay using 3-[4,5-dimethylthiazol-2-yl]-2,5-diphenyl tetrazolium bromide (MTT). […] After incubation for the specified time at 37° C. in a humidified 5% CO2 incubator, cell viability was determined. […] To achieve solubilization of formazan crystal formed in viable cells, DMSO was added to each well, and the absorbance was recorded on a microplate reader at 595 nm wavelength. The effect of sugars on growth inhibition was assessed as percent cell viability where control cells were taken as 100% viable.

`O=C[C@H](O)[C@@H](O)[C@H](O)[C@H](O)CO` [D-glucose, reference compound] was tested, and the “programmed cell death (apoptotic indices, DAPI staining)” value (DU145 cell line [1]) was “no remarkable effect” and the “cell growth (MTT assay)” value (DU145 cell line [2]) was “significant increase of cell growth in a dose-dependent manner”.
